Test results published in patent US11413278B2, “Compounds and methods for promoting stress resistance” (priority 2015, dated 2022).
Entries after “also recorded” stand apart in the source; their conditions may differ. Where two headings read alike, the source gives them in different places.

Experiments:
WI-38 cells [1] = assay: CdCl2 (cadmium) resistance assay; assay type: cell-based, human; conditions: for fold induction at 10 µM: Homo sapiens, 12 h, normalized ATP measurement; for Assay 4: H2O2- & Cd-resistant / Assay 2: Cadmium-resistant: YES/NO; for Assay 2: Cadmium-resistant: * indicates partial
Summary of the method: (§1)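 WI-38 cells were given compounds at five final concentrations (0.25–20 μM) in triplicate, followed by cadmium or MMS for 12 h. For MMS, medium was switched from OptiMEM+10% FBS to serum-free DMEM+2% BSA when compounds were added, 24 h before stressor. Two independent assays were run, analysed by global variance t-test.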

WI-38 cells [2] = conditions: for No H2O2 stress treatment, at 10 uM (fold change): normalized ATP measurement; for Assay 1: H2O2-resistant: YES/NO, if NO, possibly due to repeated freezing/thawing of stocks
WI-38 cells [3] = assay: MMS resistance assay; assay type: cell-based, human; conditions: for Triple resistant: H2O2, CdCl2 and MMS; for fold induction at 10 µM: Homo sapiens, 12 h, normalized ATP measurement
Summary of the method: as §1

[4] = system: phosphorylated γH2A.X and TP53BP1; assay: DNA damage marker analysis (immuno-staining); conditions: for activity at 10 µM: Homo sapiens, WI-38, 24 h; for P = Potential DNA-damaging / R = Potential DNA damaging: human, 24 h
Summary of the method: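 WI-38 cells were cultured 24 h, then treated with compounds for 24 h; H2O2 (700 μM, 3 h) and doxorubicin (300 nM, 24 h) served as DNA-damage controls. After fixation, cells were immunostained for phospho-γH2A.X (Ser-139) and phospho-TP53BP1 (Ser-1778), counterstained with DAPI, and imaged by automated high-content microscopy.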

C. elegans = assay type: in vivo, Caenorhabditis elegans; conditions: in vivo
Summary of the method: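 Worms treated in liquid with compounds in 96-well plates (4 wells each, FUdR to block progeny, 0.2% DMSO controls); H2O2 at 500 μM final added on day 4 of adulthood and viability scored daily.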

human PARP1 = target: T1, human PARP1 (Homo sapiens, UniProt P09874); assay: PARP inhibitor assay (HT Fluorescent Homogeneous PARP Inhibition Assay Kit); assay type: biochemical; conditions: for L = PARP inhibition: score
T1 construct: purchased Trevigen
T1 sequence (P09874 whole entry): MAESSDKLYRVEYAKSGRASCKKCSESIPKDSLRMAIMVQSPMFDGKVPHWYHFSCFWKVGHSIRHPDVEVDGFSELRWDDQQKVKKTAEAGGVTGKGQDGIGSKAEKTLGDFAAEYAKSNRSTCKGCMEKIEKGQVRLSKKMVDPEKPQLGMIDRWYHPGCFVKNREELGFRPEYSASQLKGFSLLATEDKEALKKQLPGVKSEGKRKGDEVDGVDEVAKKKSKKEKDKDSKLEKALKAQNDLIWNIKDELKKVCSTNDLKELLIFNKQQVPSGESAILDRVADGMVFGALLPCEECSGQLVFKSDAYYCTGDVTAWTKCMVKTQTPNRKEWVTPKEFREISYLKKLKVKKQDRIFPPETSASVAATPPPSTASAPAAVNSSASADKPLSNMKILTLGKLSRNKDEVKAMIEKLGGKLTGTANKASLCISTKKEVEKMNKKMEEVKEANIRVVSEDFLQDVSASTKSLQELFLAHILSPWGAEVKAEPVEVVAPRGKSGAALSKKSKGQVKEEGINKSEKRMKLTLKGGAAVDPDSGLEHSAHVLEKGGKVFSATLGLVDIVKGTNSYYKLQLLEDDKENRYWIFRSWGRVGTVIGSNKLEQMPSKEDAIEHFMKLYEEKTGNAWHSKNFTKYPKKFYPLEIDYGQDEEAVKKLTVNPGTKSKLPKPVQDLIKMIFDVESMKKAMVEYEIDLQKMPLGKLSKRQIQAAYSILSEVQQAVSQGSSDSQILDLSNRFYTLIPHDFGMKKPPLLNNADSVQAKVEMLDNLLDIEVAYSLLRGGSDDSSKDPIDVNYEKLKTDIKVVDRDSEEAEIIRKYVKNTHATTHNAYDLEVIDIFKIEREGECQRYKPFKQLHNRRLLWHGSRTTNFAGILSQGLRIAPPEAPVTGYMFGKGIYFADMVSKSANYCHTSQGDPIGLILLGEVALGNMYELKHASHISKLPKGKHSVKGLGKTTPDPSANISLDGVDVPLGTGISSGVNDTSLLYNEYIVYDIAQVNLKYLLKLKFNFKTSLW
Summary of the method: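 Human PARP1 with NAD and activated DNA, compounds at 10 μM final, 30 min at room temperature in dark. Resazurin/diaphorase cycling mix then added for 1 hr in dark before stop buffer; fluorescent homogeneous kit read-out.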

[5] = Exp. 1, WI-38 cells, read-out: Exp. 1, under Cd2Cl2 stress treatment, at 10 uM (fold change)
[6] = Exp. 2, WI-38 cells, read-out: Exp. 2, under Cd2Cl2 stress treatment, at 10 uM (fold change)
[7] = WI-38 cells, 10 μM, both stressors
[8] = score in summary of 38 core set hits
[9] = WI-38 cells, 10 μM, (*) = compromised ability to protect cells from H2O2, could be due to stability issue
[10] = asterisks indicate the loss of the ability to protect cells from H2O2 over time
[11] = read-out: Est. ED50, dose response 0.6-20 μM, H2O2-resistance
[12] = Exp. 1, WI-38 cells, read-out: Exp. 1, under MMS stress treatment, at 10 uM (fold change)
[13] = Exp. 2, WI-38 cells, read-out: Exp. 2, under MMS stress treatment, at 10 uM (fold change)
[14] = read-out: Experiment 1, H2A.X-P DNA damage foci staining (no H2O2 stress treatment), at 10 uM
[15] = read-out: Experiment 2, H2A.X-P DNA damage foci staining (no H2O2 stress treatment), at 10 uM
[16] = read-out: Experiment 2, H2A.X-P DNA damage foci staining (under H2O2 stress treatment), at 10 uM
[17] = read-out: Experiment 2, TP53BP1-P DNA damage foci staining (no H2O2 stress treatment), at 10 uM
[18] = read-out: Experiment 2, TP53BP1-P DNA damage foci staining (under H2O2 stress treatment), at 10 uM
[19] = derived from dose response curves, 0.6-20 uM, H2O2-resistance of WI-38 cells

SMILES | A = Cadmium resistant (WI-38 cells [1]; [8]) | A = Cadmium resistant (WI-38 cells [1]; summary score) | C = H2O2- & Cd-resistant (WI-38 cells [1]; summary score) | H2O2-resistant (WI-38 cells [2]; [9]) | No H2O2 stress treatment, at 10 uM (fold change) (WI-38 cells [2]; WI-38 cells) | H2O2-resistant (WI-38 cells [2]; [10]) | EC50 (WI-38 cells [2]; [11]) [µM] | B = MMS resistant (WI-38 cells [3]; [8]) | B = MMS resistant (WI-38 cells [3]; summary score) | D = Triple resistant (WI-38 cells [3]; summary score) | activity at 10 µM [4, 14] [%] | activity at 10 µM [4, 15] [%] | activity at 10 µM [4, 16] [%] | activity at 10 µM [4, 17] [%] | activity at 10 µM [4, 18] [%] | P = Potential DNA-damaging [4] | R = Potential DNA damaging [4] | L = H2O2-resistance in worms (C. elegans) | N = H2O2-resistance in woms (C. elegans) | L = PARP inhibition (human PARP1) | further results
CC(C)(C)c1ccc(OCC(=O)Nc2ccc3c4c(cccc24)C(=O)NC3=O)cc1 [O22] | 1 | 1 | 1 | YES | 0.96 fold change | YES | 20 | 1 | 1 | 2 | 101 | 121 | 210 | 154 | 510 | 0 | 0 | 0 | 0 | 1 | CdCl2-resistant (WI-38 cells [1]): YES; H2O2- & CdCl2-resistant (WI-38 cells [1]): YES; fold induction at 10 µM (WI-38 cells [1]; [5]): 5.61; fold induction at 10 µM (WI-38 cells [1]; [6]): 14.7; CdCl2-resistant (WI-38 cells [1]; WI-38 cells, 10 μM): YES; H2O2- & CdCl2-resistant (WI-38 cells [1]; [7]): YES; Assay 4: H2O2- & Cd-resistant (WI-38 cells [1]): YES; Assay 2: Cadmium-resistant (WI-38 cells [1]): YES; Assay 1: H2O2-resistant (WI-38 cells [2]): YES; MMS-resistant (WI-38 cells [3]): YES; Multiplex resistance to cadmium, MMS and H2O2 (WI-38 cells [3]; 0.25 μM to 20 μM, repurchased molecules): reproducibly conferred multiplex resistance; Triple resistant (WI-38 cells [3]): YES; fold induction at 10 µM (WI-38 cells [3]; [12]): 3.22; fold induction at 10 µM (WI-38 cells [3]; [13]): 14.8; MMS-resistant (WI-38 cells [3]; WI-38 cells, 10 μM): YES; Triple resistant (WI-38 cells [3]; WI-38 cells, 10 μM): YES; Assay 3: MMS-resistant (WI-38 cells [3]; YES/NO, * indicates partial): YES; Assay 5: Triple resistant (WI-38 cells [3]; YES/NO, H2O2, cadmium and MMS): YES; Inhibition of PARP1 (human PARP1; 10 μM, in vitro): confirmed as PARP inhibitors; also recorded: inhibitors of PARP1
CC1C(=O)C(C)C(c2cc(Cl)ccc2O)NC1c1cc(Cl)ccc1O (stereo not shown) [O6] | 1 | 1 | 1 | YES | 1.07 fold change | YES | 9.8 | 0 | 0 | 0 | 122 | 87.7 | 130 | 86.3 | 538 | 0 | 0 | 0 | 0 | 0 | CdCl2-resistant (WI-38 cells [1]): YES; H2O2- & CdCl2-resistant (WI-38 cells [1]): YES; fold induction at 10 µM (WI-38 cells [1]; [5]): 2.18; fold induction at 10 µM (WI-38 cells [1]; [6]): 2.05; CdCl2-resistant (WI-38 cells [1]; WI-38 cells, 10 μM): YES; H2O2- & CdCl2-resistant (WI-38 cells [1]; [7]): YES; Assay 4: H2O2- & Cd-resistant (WI-38 cells [1]): YES; Assay 2: Cadmium-resistant (WI-38 cells [1]): YES; Assay 1: H2O2-resistant (WI-38 cells [2]): YES; EC50 (WI-38 cells [2]; [19]): 9.8 µM; fold induction at 10 µM (WI-38 cells [3]; [12]): 0.81; fold induction at 10 µM (WI-38 cells [3]; [13]): 0.79; H2O2-resistance assay, 1st experiment (C. elegans): YES;
Nc1ccccc1S(=O)(=O)Nc1cccc2cccnc12 [Gr-3C] | 0 | 0 | 0 | YES | 0.95 fold change | YES | 4.6 | 0 | 0 | 0 | 113 | 404 | 136 | 254 | 390 | 1 | 1 | 0 | 0 | 0 | fold induction at 10 µM (WI-38 cells [1]; [5]): 0.06; fold induction at 10 µM (WI-38 cells [1]; [6]): 0.4; EC50 (WI-38 cells [2]; [19]): 6.5 µM; fold induction at 10 µM (WI-38 cells [3]; [12]): 1.06; fold induction at 10 µM (WI-38 cells [3]; [13]): 0.84
O=C(NCc1cccnc1)/C(=C\c1cccc(Oc2ccccc2)c1)S(=O)(=O)c1ccccc1 [Gr-7A] | 0 | 1 | 1 | YES (*) | 0.78 fold change | YES (*) | 58.4 | 0 | 0 | 0 | 337 | 246 | 113 | 363 | 516 | 0 | 0 | 1 | 1 | 0 | fold induction at 10 µM (WI-38 cells [1]; [5]): 0.07; fold induction at 10 µM (WI-38 cells [1]; [6]): 0.14; Assay 4: H2O2- & Cd-resistant (WI-38 cells [1]): YES; Assay 2: Cadmium-resistant (WI-38 cells [1]): YES; Assay 1: H2O2-resistant (WI-38 cells [2]): YES; EC50 (WI-38 cells [2]; [19]): 16.1 µM; fold induction at 10 µM (WI-38 cells [3]; [12]): 0.96; fold induction at 10 µM (WI-38 cells [3]; [13]): 2.21; H2O2-resistance assay, 1st experiment (C. elegans): YES;; Protection of C. elegans from hydrogen peroxide (C. elegans): could protect C. elegans from hydrogen peroxide
N=C1S/C(=C\c2cn(-c3ccccc3)nc2-c2cccs2)C(=O)N1c1nccs1 [Gr-6C] | 0 | 0 | 0 | YES (*) | .096 fold change | YES (*) | 48.5 | 0 | 0 | 0 | 181 | 300 | 43 | 290 | 440 | 1 | 1 | 0 | 0 | 0 | EC50 (WI-38 cells [2]; [19]): 16.2 µM
